From patent US20240300886A1, “ARYLCYCLOHEXYLAMINE DERIVATIVES AND THEIR USE IN THE TREATMENT OF PSYCHIATRIC DISORDERS” (GILGAMESH PHARMACEUTICALS, INC., priority 2021, published 2024)
Like-named read-outs stand apart in the source and are kept apart here.

What was measured:
[1] = Oral bioavailability in mice, Method B (plasma and brain PK); type: in vivo, C57BL/6 mice; details: for half-life / Cmax / AUC(0-inf): male, C57BL/6; for F: 1 mg/kg
Procedure: Animals. Male C57BL/6 mice were used in these studies. Animals were randomly assigned to treatment groups and were fasted for 4 h before dosing.
Drugs. Test compounds were dissolved in a vehicle consisting of normal saline (for compounds used as the HCl salt) or normal saline slightly acidified with aq. HCl (for freebase compounds). They were then administered intravenously (iv) or orally (po) at a dose of 1 or 10 mg/kg (calculated based on freebase), as indicated, and at a volume of 5 mL/kg body weight. Compounds were tested as the racemates or pure enantiomers, as indicated.
(§1) Sample Collection and Bioanalysis. Blood samples (approximately 60 μL) were collected under light isoflurane anesthesia (Surgivet®) from the retro orbital plexus at 0.08, 0.25, 0.5, 1, 2, 4, 8, and 24 h (4 animals per time point). Immediately after blood collection, plasma was harvested by centrifugation at 4,000 rpm for 10 min at 4° C. and samples were stored at −70±10° C. until bioanalysis. Following blood collection, animals were immediately sacrificed, the abdominal vena-cava was cut open, and the whole body was perfused from the heart using 10 mL of normal saline, and brain samples were collected from all animals. After isolation, brain samples were rinsed three times in ice-cold normal saline (for 5-10 seconds/rinse using ˜5-10 mL, normal saline in disposable petri dish for each rinse) and dried on blotting paper. Brain samples were homogenized using ice-cold phosphate-buffered saline (pH 7.4). Total homogenate volume was three times the tissue weight. All homogenates were stored at −70±10° C. until bioanalysis. For bioanalysis, 25 μL aliquots of plasma/brain study samples or spiked plasma/brain calibration standards were added to individual pre-labeled micro-centrifuge tubes followed by 100 μL of an internal standard solution (glipizide, 500 ng/mL in acetonitrile) except for blanks, where 100 μL of acetonitrile was added. Samples were vortexed for 5 minutes and then centrifuged for 10 minutes at 4,000 rpm at 4° C. Following centrifugation, 100 μL of each clear supernatant was transferred to a 96 well plate and analyzed with a fit-for-purpose LC-MS/MS method, with authentic samples of each analyte used for calibration and identification.
(§2) Data Analysis. Pharmacokinetic parameters were estimated using the non-compartmental analysis tool of Phoenix® WinNonlin software (Ver 8.0).

[2] = Comparative metabolism/PK of 2R and deuterated 7R in rats after oral administration; type: in vivo, Sprague Dawley rats
Procedure: Animals. Male Sprague Dawley rats were used in these studies. Animals were randomly assigned to treatment groups and were fasted for 4 h before dosing.
Drugs. Test compounds 2R and 7R were dissolved in a vehicle consisting of normal saline. They were then administered orally (po) at a dose of 10 mg/kg (calculated based on freebase), and at a volume of 5 mL/kg body weight.
as §1, with “mL” for “mL,”, “7.4)” for “7.4).”, “identification. Concentrations of parent compound (2R or 7R) and metabolite 1R were determined in all samples.” for “identification.”
as §2

[3] = rat brain after 10 mg/kg po of 2R or 7R, parent or metabolite 1R as labelled

Work on `CN[C@@]1(c2ccc(F)cc2)CCCCC1=O` [Compound 2R, (R)-2-(4-fluorophenyl)-2(methylamino)cyclohexan-1-one] yielded a half-life ([1]; mouse brain, Method B, 1 mg/kg iv, read-out: t1/2 (iv)) of 23.4 min, a Cmax ([1]; mouse brain, Method B, 1 mg/kg po) of 177 ng/g and a half-life ([1]; mouse brain, Method B, 1 mg/kg po, read-out: t1/2 (po)) of 36 min. The half-life ([1]; mouse plasma, Method B, 1 mg/kg iv, read-out: t1/2 (iv)) was 45 min, the AUC(0-inf) ([1]; mouse plasma, Method B, 1 mg/kg iv, values represent AUC0-last, read-out: AUC0-inf (iv) (converted)) was 96.3 ng·h/mL and the Cmax ([1]; mouse plasma, Method B, 1 mg/kg po) was 53.6 ng/mL. The half-life ([1]; mouse plasma, Method B, 1 mg/kg po, read-out: t1/2 (po)) was 29.4 min, the AUC(0-inf) ([1]; mouse plasma, Method B, 1 mg/kg po, values represent AUC0-last, read-out: AUC0-inf (po) (converted)) was 38.8 ng·h/mL and the “brain exposure after oral administration compared to enantiomer 2S” value ([1]; mice) was “substantially higher brain exposure”. For the same compound, the “AUC0-inf (iv)” value ([1]; mouse brain, Method B, 1 mg/kg iv, values represent AUC0-last) was 17,791 ng*min/g, the “AUC0-inf (po)” value ([1]; mouse brain, Method B, 1 mg/kg po, values represent AUC0-last) was 5,890 ng*min/g and the F ([1]; mouse brain, Method B, calculated based on brain exposure (AUC0-last)) was 33%. It also gave an F ([1]; mouse plasma, Method B, based on AUC0-last) of 40%, a half-life ([2]; male, Sprague Dawley, rat, brain, po, 10 mg/kg, rat brain after 10 mg/kg po of 2R or 7R, parent or metabolite 1R as labelled, read-out: t1/2 (brain)) of 71 min and a concentration at 0.083 h ([2]; male, Sprague Dawley, rat, plasma, oral, 10 mg/kg, rat plasma, 0.083 h after 10 mg/kg po of 2R or 7R, read-out: Mean plasma concentration) of 37 ng/mL. For the same compound, the concentration at 0.25 h ([2]; male, Sprague Dawley, rat, plasma, oral, 10 mg/kg, rat plasma, 0.25 h after 10 mg/kg po of 2R or 7R, read-out: Mean plasma concentration) was 760 ng/mL, the concentration at 0.5 h ([2]; male, Sprague Dawley, rat, plasma, oral, 10 mg/kg, rat plasma, 0.5 h after 10 mg/kg po of 2R or 7R, read-out: Mean plasma concentration) was 850 ng/mL and the concentration at 1 h ([2]; male, Sprague Dawley, rat, plasma, oral, 10 mg/kg, rat plasma, 1 h after 10 mg/kg po of 2R or 7R, read-out: Mean plasma concentration) was 497 ng/mL. For the same compound, the concentration at 2 h ([2]; male, Sprague Dawley, rat, plasma, oral, 10 mg/kg, rat plasma, 2 h after 10 mg/kg po of 2R or 7R, read-out: Mean plasma concentration) was 142 ng/mL, the concentration at 4 h ([2]; male, Sprague Dawley, rat, plasma, oral, 10 mg/kg, rat plasma, 4 h after 10 mg/kg po of 2R or 7R, read-out: Mean plasma concentration) was 42 ng/mL and the Cmax ([2]; male, Sprague Dawley, rat, plasma, po, 10 mg/kg, rat plasma after 10 mg/kg po of 2R or 7R, parent or metabolite 1R as labelled) was 850 ng/mL. For the same compound, the AUC(0-t) ([2]; male, Sprague Dawley, rat, plasma, po, 10 mg/kg, rat plasma after 10 mg/kg po of 2R or 7R, parent or metabolite 1R as labelled, read-out: AUC0-last (plasma) (converted)) was 1200 ng·h/mL, the half-life ([2]; male, Sprague Dawley, rat, plasma, po, 10 mg/kg, rat plasma after 10 mg/kg po of 2R or 7R, parent or metabolite 1R as labelled, read-out: t1/2 (plasma)) was 70 min and the “AUC0-last (brain)” value [2, 3] was 227268 ng·min/g. For the same compound, the “Cmax (brain)” value [2, 3] was 2599 ng/g.
